Measurements as given in paper PMC9330922, “Genomewide Analysis and Biological Characterization of Cathelicidins with Potent Antimicrobial Activity and Low Cytotoxicity from Three Bat Species” (Antibiotics, 2022).
Read-outs that look alike come from different tables or passages of the source.

Columns and labels:
Test in all cases: microbe, parasite or virus in culture
Type in all cases: cell-based
[1] = test system: Escherichia coli ATCC 25922; settings: MHB; for MIC: Escherichia coli, ATCC25922, 8 h, value in brackets, WST colorimetric, 37 °C 6 h + 2 h, triplicate, read-out: Minimum Inhibitory Concentration; for Minimum Inhibitory Concentration: Microbial Viability Assay Kit-WST, 1.5 × 10^5 CFU/well, 37 °C 6 h + 2 h coloring reagent, A450, triplicate
Experimental: (§1) The antibacterial activities of the chemically synthesized peptides were evaluated against a panel of bacteria consisting of 6 Gram-negative strains, including E. coli ATCC 25922 (American Type Culture Collection, Manassas, VA, USA), P. aeruginosa ATCC 27853, S. Typhimurium ATCC 14028, A. baumannii KCTC (Korean Collection for Type Cultures, Jeongeup, Korea) 23254, K. pneumoniae KCTC 1726, and E. cloacae ATCC 13047, and 6 Gram-positive strains, including S. aureus ATCC 6538, B. cereus ATCC 10876, E. faecalis ATCC 29212, S. agalactiae ATCC 27956, S. dysgalactiae ATCC 27957, and S. equi ATCC 43079. Ampicillin (Sigma-Aldrich, St. Louis, MO, USA), chloramphenicol (Sigma-Aldrich), and gentamicin sulfate (Sigma-Aldrich) were used as controls for antibacterial activity. The MIC was determined by a colorimetric method using the Microbial Viability Assay Kit-WST (Dojindo, Kumamoto, Japan) according to the manufacturer’s manual and the Clinical and Laboratory Standards Institute (CLSI) guidelines (2018). Four colonies of each bacterium were inoculated into 5 mL of Luria-Bertani (LB) broth medium (BD Bioscience, Franklin Lakes, NJ, USA) or brain heart infusion broth (BHIB; BD Bioscience) at 37 °C for 6 h with shaking at 220 rpm. E. faecalis and streptococci were cultured in BHIB because of their slow growth, whereas all other bacteria were cultured in LB medium. The cells were washed by sterile saline (0.9% NaCl) twice and adjusted in a single well of a 96-well plate at a cell density of 1.5 × 10^5 CFU/well in accordance with 0.5 McFarland standard. Subsequently, 180 µL/well of fresh Mueller-Hinton broth (MHB; BD Bioscience), except for E. faecalis and streptococci using BHIB was added to the plate using BHIB. Final concentrations of 1–40 µg/mL (0.3–19.3 μM) of each peptide and reference antibiotic were added to each well. The plates were then incubated at 37 °C for 6 h. Subsequently, 10 µL of the coloring reagent was added, and the mixture was incubated at 37 °C for 2 h. The absorbance of each well was measured at 450 nm using a microplate spectrophotometer (Bio-Rad, xMark spectrophotometer, Hercules, CA, USA). MIC values were determined when the difference in the absorbance values between treatments and blanks (media and coloring reagent only) was less than 0.05. Experiments were performed in triplicate.

[2] = test system: Streptococcus dysgalactiae ATCC 27957; settings: BHIB; for Minimum Inhibitory Concentration: Microbial Viability Assay Kit-WST, 1.5 × 10^5 CFU/well, 37 °C 6 h + 2 h coloring reagent, A450, triplicate; for MIC: Streptococcus dysgalactiae, ATCC27957, value in brackets, WST colorimetric, 37 °C 6 h + 2 h, triplicate, read-out: Minimum Inhibitory Concentration
Experimental: as §1

[3] = test system: Acinetobacter baumannii KCTC 23254; settings: MHB; for MIC: Acinetobacter baumannii, KCTC23254, value in brackets, WST colorimetric, 37 °C 6 h + 2 h, triplicate, read-out: Minimum Inhibitory Concentration; for Minimum Inhibitory Concentration: Microbial Viability Assay Kit-WST, 1.5 × 10^5 CFU/well, 37 °C 6 h + 2 h coloring reagent, A450, triplicate
Experimental: as §1

[4] = test system: Streptococcus agalactiae ATCC 27956; settings: BHIB; for Minimum Inhibitory Concentration: Microbial Viability Assay Kit-WST, 1.5 × 10^5 CFU/well, 37 °C 6 h + 2 h coloring reagent, A450, triplicate; for MIC: Streptococcus agalactiae, ATCC27956, value in brackets, WST colorimetric, 37 °C 6 h + 2 h, triplicate, read-out: Minimum Inhibitory Concentration
Experimental: as §1

[5] = test system: Salmonella enterica serovar Typhimurium ATCC 14028; settings: MHB; for Minimum Inhibitory Concentration: Microbial Viability Assay Kit-WST, 1.5 × 10^5 CFU/well, 37 °C 6 h + 2 h coloring reagent, A450, triplicate; for MIC: Salmonella enterica, value in brackets, WST colorimetric, 37 °C 6 h + 2 h, triplicate, read-out: Minimum Inhibitory Concentration
Experimental: as §1

[6] = test system: Enterobacter cloacae subsp. cloacae ATCC 13047; settings: MHB; for MIC: Enterobacter cloacae, ATCC13047, value in brackets, WST colorimetric, 37 °C 6 h + 2 h, triplicate, read-out: Minimum Inhibitory Concentration; for Minimum Inhibitory Concentration: Microbial Viability Assay Kit-WST, 1.5 × 10^5 CFU/well, 37 °C 6 h + 2 h coloring reagent, A450, triplicate
Experimental: as §1

[7] = test system: Streptococcus equi subsp. zooepidemicus ATCC 43079; settings: BHIB; for Minimum Inhibitory Concentration: Microbial Viability Assay Kit-WST, 1.5 × 10^5 CFU/well, 37 °C 6 h + 2 h coloring reagent, A450, triplicate; for MIC: Streptococcus equi, ATCC43079, value in brackets, WST colorimetric, 37 °C 6 h + 2 h, triplicate, read-out: Minimum Inhibitory Concentration
Experimental: as §1

[8] = test system: Bacillus cereus ATCC 10876; settings: MHB; for MIC: Bacillus cereus, ATCC10876, value in brackets, WST colorimetric, 37 °C 6 h + 2 h, triplicate, read-out: Minimum Inhibitory Concentration; for Minimum Inhibitory Concentration: Microbial Viability Assay Kit-WST, 1.5 × 10^5 CFU/well, 37 °C 6 h + 2 h coloring reagent, A450, triplicate
Experimental: as §1

[9] = test system: Klebsiella pneumoniae subsp. pneumoniae KCTC 1726; settings: MHB; for MIC: Klebsiella pneumoniae, KCTC1726, value in brackets, WST colorimetric, 37 °C 6 h + 2 h, triplicate, read-out: Minimum Inhibitory Concentration; for Minimum Inhibitory Concentration: Microbial Viability Assay Kit-WST, 1.5 × 10^5 CFU/well, 37 °C 6 h + 2 h coloring reagent, A450, triplicate
Experimental: as §1

[10] = test system: Pseudomonas aeruginosa ATCC 27853; settings: MHB; for Minimum Inhibitory Concentration: Microbial Viability Assay Kit-WST, 1.5 × 10^5 CFU/well, 37 °C 6 h + 2 h coloring reagent, A450, triplicate; for MIC: Pseudomonas aeruginosa, ATCC27853, value in brackets, WST colorimetric, 37 °C 6 h + 2 h, triplicate, read-out: Minimum Inhibitory Concentration
Experimental: as §1

[11] = test system: Staphylococcus aureus ATCC 6538; settings: MHB; for Minimum Inhibitory Concentration: Microbial Viability Assay Kit-WST, 1.5 × 10^5 CFU/well, 37 °C 6 h + 2 h coloring reagent, A450, triplicate; for MIC: Staphylococcus aureus, ATCC6538, value in brackets, WST colorimetric, 37 °C 6 h + 2 h, triplicate, read-out: Minimum Inhibitory Concentration
Experimental: as §1

[12] = test system: Enterococcus faecalis ATCC 29212; settings: BHIB; for MIC: Enterococcus faecalis, ATCC29212, value in brackets, WST colorimetric, 37 °C 6 h + 2 h, triplicate, read-out: Minimum Inhibitory Concentration; for Minimum Inhibitory Concentration: Microbial Viability Assay Kit-WST, 1.5 × 10^5 CFU/well, 37 °C 6 h + 2 h coloring reagent, A450, triplicate
Experimental: as §1

[13] = test system: Cryptococcus cuniculi KCTC 17232; settings: WST colorimetric
Experimental: (§2) The antifungal activities of the peptides were evaluated against two yeast fungi, C. albicans KCTC 7270 and C. cuniculi KCTC 17232, and a mold fungus, M. hiemalis KCTC 26779. C. albicans and C. cuniculi were cultured in yeast mold broth (YMB; BD Science) agar at 35 °C and 25 °C, respectively. Cells were prepared in YMB for C. albicans and RPMI 1640 medium (with l-glutamine, without phenol red and sodium bicarbonate, Sigma Aldrich, Saint Louis, MO, USA) and adjusted to pH 7.0 with 0.165 M 3-(N-morpholino) propanesulfonic acid (MOPS) (iNtRON Biotechnology, Seoul, Korea), as previously described for C. cuniculi. According to the 0.5 McFarland standard, cells at 1.5 × 10^5 CFU/well were seeded into a 96-well plate containing 180 µL of fresh medium. Subsequently, peptides at final concentrations of 5–45 ug/mL (1.2–19.3 μM) peptides were added to each well. Ciclopirox (≥98% (HPLC), Sigma Aldrich) was used as a reference for the antifungal activity. The antifungal assay was conducted in the same manner as the antibacterial assay described above, according to the manufacturer’s protocol. Briefly, C. albicans and C. cuniculi were incubated at 35 °C for 6 h and 25 °C for 47 h, respectively, and 10 µL of the coloring reagent was added and further incubated for 18 h and 25 h. The MIC values were determined in the same way as for the antibacterial assay.

[14] = test system: Candida albicans KCTC 7270; settings: WST colorimetric, YMB
Experimental: as §2

Row | MIC [1] [µM] | MIC [2] [µM] | MIC [3] [µM] | MIC [4] [µM] | MIC [5] [µM] | MIC [6] [µM] | MIC [7] [µM] | MIC [8] [µM] | MIC [9] [µM] | MIC [10] [µM] | SMILES | Minimum Inhibitory Concentration [1] [µg/mL] | Minimum Inhibitory Concentration [2] [µg/mL] | Minimum Inhibitory Concentration [3] [µg/mL] | Minimum Inhibitory Concentration [4] [µg/mL] | Minimum Inhibitory Concentration [5] [µg/mL] | Minimum Inhibitory Concentration [6] [µg/mL] | Minimum Inhibitory Concentration [7] [µg/mL] | Minimum Inhibitory Concentration [8] [µg/mL] | Minimum Inhibitory Concentration [9] [µg/mL] | Minimum Inhibitory Concentration [10] [µg/mL] | further results
1 | 14.3 | 5.7 | > 229 | 11.4 | > 229 | > 229 | 5.7 | 229 | > 229 | > 1830 | CC1(C)S[C@@H]2[C@H](NC(=O)[C@H](N)c3ccccc3)C(=O)N2[C@H]1C(=O)O [Ampicillin] | 5 | 2 | > 80 | 4 | > 80 | > 80 | 2 | 80 | > 80 | > 640 | Minimum Inhibitory Concentration [11]: 2 µg/mL; MIC [11]: 5.7 µM; MIC [12]: 28.6 µM; Minimum Inhibitory Concentration [12]: 10 µg/mL
2 |  |  |  |  |  |  |  |  |  |  | Cc1cc(C2CCCCC2)n(O)c(=O)c1 [Ciclopirox] |  |  |  |  |  |  |  |  |  |  | MIC ([13]; Cryptococcus, KCTC17232, value in brackets, RPMI 1640 with MOPS pH 7.0, 25 °C 47 h + 25 h, read-out: MIC): 2.4 µM; MIC ([13]; RPMI 1640 with MOPS pH 7.0, 1.5 × 10^5 CFU/well, 25 °C 47 h + 25 h coloring reagent): 0.5 µg/mL; MIC ([14]; Candida albicans, KCTC7270, value in brackets, 35 °C 6 h + 18 h, read-out: MIC (converted)): 16.9 µM; MIC ([14]; 1.5 × 10^5 CFU/well, 35 °C 6 h + 18 h coloring reagent): 3.5 µg/mL
3 | 9.3 | 12.4 | 118 | 15.5 | 15.5 | 15.5 | 15.5 | 31 | > 248 | 248 | O=C(N[C@H](CO)[C@H](O)c1ccc([N+](=O)[O-])cc1)C(Cl)Cl [chloramphenicol] | 3 | 4 | 38 | 5 | 5 | 5 | 5 | 10 | > 80 | 80 | Minimum Inhibitory Concentration [11]: 7.5 µg/mL; MIC [11]: 23.2 µM; MIC [12]: 31 µM; Minimum Inhibitory Concentration [12]: 10 µg/mL
